Data as given in PubChem BioAssay AID504751 (National Center for Advancing Translational Sciences (NCATS), 2011).
≈ marks a conversion by molar mass, not a printed value.

System: Kinetic aqueous solubility, PBS pH 7.4, LC-UV/MS
Assay: Inhibitors of Cruzain: Aqueous Profiling Assay
From the text: Chagas Disease is a neglected tropical disease that affects over 16 million people in Latin America. The cysteine protease cruzain is essential for the survival Trypanosoma cruzi, the parasitic agent responsible for Chagas disease. Potential intervention for T. cruzi includes the inhibition of cruzain. This bioassay will summarize the ongoing development of small molecule cruzain inhbitiors. Currently, a screen of ~200k compounds and through extensive follow-up work a probe was identified. To further characterize the probe, it was tested in in vitro ADME assays. This bioassay provides profiling data on aqueous kinetic solubility (PBS @ pH 7.4), an important measure that affects in vivo bioavailability. NIH Chemical Genomics Center [NCGC] NIH Molecular Libraries Probe Production Centers Network [MLPCN] MLSCN Grant: DA024891-01 PI Name: Dr. Brian Shoichet; University of California, San Francisco
1. 8ul of reference and test compound stock solution were added to 392ul 100mM phosphate buffer (pH 7.4) 2. Sample tubes were shaken for 1 hr (1000 rpm) at room temperature 3. Samples were centrifuged (10 min at 12000 rpm) to precipitate un-dissolved particles 4. Supernatants were transferred to new tubes 5. Concentration of the supernatant was determined by LC-UV or LC-MS/MS

## Cc1ccc(OCCn2c(CCNC(=O)C3CCCCC3)nc3ccccc32)cc1
  solubility: 5 µM (≈ 2.03 µg/mL)
